Source: paper PMC12029179, “6-Chlorocoumarin Conjugates with Nucleobases and Nucleosides as Potent Anti-Hepatitis C Virus Agents” (Molecules, 2025)

What was measured:
Detroit 551 cells = assay: Cell viability (MTS) assay in Detroit 551 cells; type: cell-based; settings: Detroit 551 cells
Description: Detroit 551 cells, a human fibroblast cell line, are routinely employed to assess both acute and chronic toxicity in normal human cells. Evaluating the cytotoxicity of compounds in Detroit 551 cells helps to identify potential safety concerns early in drug development. The three promising leads, 7a, 7b, and 18, were tested in a Detroit 551 assay using the antineoplastic and antibiotic agent actinomycin D as a positive control.
Detroit 551 cells were harvested and seeded into a 96-well plate, then incubated at 37 °C for 24 h. A serial dilution of the test compound was prepared in eight three-fold concentrations (20,000 nM, 6667 nM, 2222 nM, 741 nM, 247 nM, 82 nM, 27 nM, and 9 nM), and 10 µL of each dilution was added to the corresponding wells. The plate was then returned to 37 °C for an additional 72 h of incubation. After this incubation, a 3-(4,5-dimethylthiazol-2-yl)-5-(3-carboxymethoxyphenyl)-2-(4-sulfophenyl)-2H-tetrazolium (MTS) assay medium (mixed in a 2:0.1 ratio of MTS–phenazine methyl sulfate (PMS)) was prepared. The plate was moved to a biological safety cabinet, and 21 µL of the MTS medium was added to each well. The plate was then incubated at 37 °C for 90 min before absorbance was measured at 490 nm on a Victor 2 plate reader (PerkinElmer, Inc., Waltham, MA, USA). Data were subsequently analyzed to assess cytotoxicity.

Huh 9-13 cells = assay: Host-cell metabolic activity in Huh 9-13 cells; type: cell-based
[1] = Host-cell metabolic activity in Huh 9-13 cells; type: cell-based; settings: human
[2] = Host-cell metabolic activity (MTS assay) in Huh 5-2 cells; type: cell-based; settings: human
Text: (§1) An evaluation of the antiviral effects of the conjugated compounds was initially performed in Huh 5-2 cells utilizing the HCV genotype 1b subgenomic replicon system, based on previously reported procedures. By analyzing the dose–response curves, we calculated the concentration of each compound that inhibited the viral replication by 50% (EC50) and the concentration that reduced the host-cell metabolic activity by 50% (CC50). These values were then used to compute the selectivity index (SI = CC50/EC50), which serves as an indicator of a compound’s therapeutic window. Even if an EC50 was determined from the dose–response curve in the antiviral assay, the compounds that were evaluated may not qualify as promising hits. […] It is likely that the antiviral activity observed in the other compounds is due to their nonspecific or pleiotropic effects on the host cell.

HCV subgenomic replicon = assay: Anti-HCV assay in Huh 9-13 cells (real-time quantitative RT-PCR of replicon RNA); type: cell-based, hepatitis C virus (HCV); settings: for % replicon RNA: normalized against no-drug control; for EC50: Hepatitis C virus
Description: Furthermore, the antiviral activity of three of the hits (i.e., 7a, 7b, and 18) was validated by evaluation of the dose–response effect of treatment with the compounds at the level of viral RNA replication in the Huh 9-13 assay system. The real-time quantitative RT-PCR readout was used.
Huh 9-13 cells were seeded at 5 × 10^3 cells per well into 96-well plates containing complete DMEM supplemented with 1000 µg/mL G418. […] After 4 days of incubation, the culture medium was removed, and the cell monolayers were washed once with phosphate-buffered saline (PBS). Cells were then lysed using 350 µL of RLT buffer (Qiagen, Venlo, The Netherlands) as per the manufacturer’s protocol, and the lysates were stored at −80 °C for future analysis. Upon completion of sample collection, RNA was extracted, and the samples were analyzed through quantitative real-time PCR to measure their HCV replicon content. The real-time RT-PCR data for all samples were calibrated against the “no-drug control”.
* After collection of all samples, RNA was extracted and samples were analyzed by quantitative real-
time PCR for their HCV replicon content. Real-time RT-PCR values of all assayed samples were
normalized against the “no-drug control”.

[3] = test system: HCV genotype 1b subgenomic replicon; assay: Anti-HCV assay in Huh 5-2 cells (luciferase replicon readout); type: cell-based, hepatitis C virus (HCV); settings: for EC50: Huh-5-2, Huh 5-2 cells, luminescence
Text: as §1
Huh 5-2 cells were plated in white, tissue culture-treated 96-well view plates (Packard, Canberra, Canada) at a density of 5 × 10^3 cells per well, using complete Dulbecco’s Modified Eagle Medium (DMEM) containing 250 µg/mL G418. Following 24 h incubation at 37 °C with 5% CO2, the medium was discarded and serial 3-fold dilutions of the test compounds—prepared in complete DMEM lacking G418—were added to reach a final volume of 100 µL per well. After an additional 4-day incubation period under the same conditions, the medium was removed, and luciferase activity was assessed using the Steady-Glo luciferase assay kit (Promega, Leiden, The Netherlands). Luminescence was measured with a Luminoskan Ascent reader (Thermo, Vantaa, Finland). The EC50 value was determined as the compound concentration resulting in a 50% decrease in luciferase signal.

HCV = test system: HCV; set-up: method as in PMID 19303654; settings: Huh-5-2 cells; cited from earlier work
Huh-5-2 cells = test system: Huh-5-2 cells; set-up: method as in PMID 19303654; settings: cited from earlier work

O=c1ccnc(SCc2cc3cc(Cl)ccc3oc2=O)[nH]1 [Compound 18, 2-[(6′-Chlorocoumarin-3′-yl)methylthio]uracil]
cell death at highest tested concentration (Detroit 551 cells; 20 μM): none of the three compounds induced cell death | IC50 (Detroit 551 cells; Homo sapiens, 72 h incubation, tested starting at 20.0 μM, read-out: IC50 (cell survival rate of 50%)): > 20 µM | % cell metabolism (Huh 9-13 cells; 0.977 µg/ml): 103% | % cell metabolism (Huh 9-13 cells; 1.953 µg/ml): 92% | % cell metabolism (Huh 9-13 cells; 3.906 µg/ml): 109% | % cell metabolism (Huh 9-13 cells; 7.813 µg/ml): 101% | % cell metabolism (Huh 9-13 cells; 15.625 µg/ml): 98% | % cell metabolism (Huh 9-13 cells; 31.25 µg/ml): 103% | % cell metabolism (Huh 9-13 cells; 62.50 µg/ml): 99% | % cell metabolism (Huh 9-13 cells; 125 µg/ml): 104% | CC50 ([1]; compound 18 tested starting at 125 µg/mL): > 390 µM | CC50 ([1]; supplement dose-response data): > 125 µg/mL | CC50 ([2]; primary screening, tested starting at 50 μg/mL): > 156 µM | CC50 ([2]; secondary screen starting at 125 μg/mL): > 390 µM | SI (CC50/EC50) (HCV subgenomic replicon): >41 | Quantity (HCV replicon RNA, real-time PCR) (HCV subgenomic replicon; 0.977 µg/ml): 2.11E-03 | % replicon RNA (HCV subgenomic replicon; 0.977 µg/ml): 66% | Quantity (HCV replicon RNA, real-time PCR) (HCV subgenomic replicon; 1.953 µg/ml): 2.06E-03 | % replicon RNA (HCV subgenomic replicon; 1.953 µg/ml): 64% | Quantity (HCV replicon RNA, real-time PCR) (HCV subgenomic replicon; 3.906 µg/ml): 1.40E-03 | % replicon RNA (HCV subgenomic replicon; 3.906 µg/ml): 44% | Quantity (HCV replicon RNA, real-time PCR) (HCV subgenomic replicon; 7.813 µg/ml): 1.12E-03 | % replicon RNA (HCV subgenomic replicon; 7.813 µg/ml): 35% | Quantity (HCV replicon RNA, real-time PCR) (HCV subgenomic replicon; 15.625 µg/ml): 4.59E-04 | % replicon RNA (HCV subgenomic replicon; 15.625 µg/ml): 14% | Quantity (HCV replicon RNA, real-time PCR) (HCV subgenomic replicon; 31.25 µg/ml): 2.30E-04 | % replicon RNA (HCV subgenomic replicon; 31.25 µg/ml): 7% | Quantity (HCV replicon RNA, real-time PCR) (HCV subgenomic replicon; 62.50 µg/ml): 6.77E-05 | % replicon RNA (HCV subgenomic replicon; 62.50 µg/ml): 2% | Quantity (HCV replicon RNA, real-time PCR) (HCV subgenomic replicon; 125 µg/ml): 4.20E-05 | % replicon RNA (HCV subgenomic replicon; 125 µg/ml): 1% | EC50 (HCV subgenomic replicon; real-time quantitative RT-PCR readout): 9.4 µM | EC50 (HCV subgenomic replicon; supplement dose-response data): 3 µg/mL | EC50 ([3]; Hepatitis C virus, primary screening, tested starting at 50 μg/mL): 48 µM | EC50 ([3]; Hepatitis C virus, secondary screen starting at 125 μg/mL, average of triplicate): 87 µM | inhibition at 125 µg/mL ([3]; Hepatitis C virus, Huh 5-2 cells, at 125 μg/mL): > 90% | SI (CC50/EC50) ([3]; Huh 5-2 cells, primary screening starting at 50 μg/mL): >3.2 | SI (CC50/EC50) ([3]; Huh 5-2 cells, secondary screen starting at 125 μg/mL): >4.5

CC(C)(C)NC(=O)N[C@H](C(=O)N1C[C@H]2[C@@H]([C@H]1C(=O)NC(CC1CCC1)C(=O)C(N)=O)C2(C)C)C(C)(C)C (stereo partly drawn) [boceprevir]
EC50 (HCV): 0.93 µM | CC50 (Huh-5-2 cells): ≥ 7.4 µM

CCC[C@H](NC(=O)[C@@H]1[C@H]2CCC[C@H]2CN1C(=O)[C@@H](NC(=O)[C@@H](NC(=O)c1cnccn1)C1CCCCC1)C(C)(C)C)C(=O)C(=O)NC1CC1 [telaprevir]
EC50 (HCV): 1.1 µM | CC50 (Huh-5-2 cells): ≥ 24 µM
